Tested on: Male Fischer 344 rats
Assay: Penile Erection in Rat
Format: in vivo
Details: male Fischer 344 rats (n=7), observed for 60 minutes, mean number
Description: (This test was carried out according to a similar manner to that described in Jpn. J. Pharmacol., Vol. 64, 147-153 (1994))
Male Fischer 344 rats at the age of 8 weeks (n=7) were used. All rats were handled 3 minutes a day for three successive days before the tests. The rats were tested in groups of seven and various doses of the test compound were given in semi-randomized order. The test compounds were suspended in 0.5% methyl-cellulose immediately before use, and given intraperitoneally in a volume of 1 ml/kg just before the start of test. […] A mirror was situated behind each box […]. Data was expressed as a mean number.

| Structure (SMILES) | Penile Erection (dose 1 mg/kg intraperitoneally) [number/hr] | Penile Erection (dose 0.32 mg/kg intraperitoneally) [number/hr] |
| --- | --- | --- |
| CC(=O)N1CCN(C(=O)Nc2ccc(F)cc2)CC1 [Example 2, 1-acetyl-4-(4-fluorophenylcarbamoyl)piperazine] | 1.14 |  |
| O=C(NC1CCN(C(=O)C2CC2)CC1)c1ccc(F)cc1 [Example 19, N-(1-cyclopropylcarbonylpiperidin-4-yl)-4-fluorobenzamide] |  | 0.75 |

From patent publication US6710043B1, “Amide compounds” (Fujisawa Pharmaceutical Co., Ltd., priority 1999, dated 2004)
